Data from publication PMC4774501 (Biomolecules & Therapeutics, 2016).

Molecular target: T1, vitamin D receptor (VDR) (Homo sapiens, UniProt P11473)
T1 sequence (P11473 118-427): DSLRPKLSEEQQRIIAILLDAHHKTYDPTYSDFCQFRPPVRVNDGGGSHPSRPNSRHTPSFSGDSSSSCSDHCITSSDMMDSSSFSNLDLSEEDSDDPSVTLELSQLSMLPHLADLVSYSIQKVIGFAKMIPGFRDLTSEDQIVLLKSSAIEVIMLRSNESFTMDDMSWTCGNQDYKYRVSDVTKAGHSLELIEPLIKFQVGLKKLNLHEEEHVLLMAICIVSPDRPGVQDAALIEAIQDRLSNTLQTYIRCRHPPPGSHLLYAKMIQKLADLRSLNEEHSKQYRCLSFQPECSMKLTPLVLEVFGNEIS
Assay: intrinsic tryptophan fluorescence quenching titration
Format: binding

## O=c1c(O)c(-c2ccc(O)c(O)c2)oc2cc(O)cc(O)c12 [quercetin]
  Kd: 21.1 ± 4.31 µM
